For this assay, the target named is α-amylase. Kind of assay: DNS colorimetric alpha-amylase inhibition assay with starch. It is filed as biochemical.

Converted amounts (≈) assume the structure as drawn.

A word on the IC50: it is the concentration that inhibits the measured activity by half. A higher IC50 goes with weaker potency.

For the compound `COc1cc(O[C@@H]2O[C@H](CO[C@@H]3OC[C@@H](O)[C@H](O)[C@H]3O)[C@@H](O)[C@H](O)[C@H]2O)c2c(=O)cc(-c3ccc(O)cc3)oc2c1` [compound 1, 5-[(β)-D-xylopyranoside-(1'''→6'')-β-D-glucopyranoside] 7-Methoxy apigenin], the IC50 stood at 1320 µg/mL (≈ 2280 µM).

Compound `COc1cc2cc(Oc3ccc4ccc(=O)oc4c3)c(=O)oc2cc1O` [compound 2, 6'-Methoxy-7'-hydroxy-3'-O-7-bicoumarin] had an IC50 of 710 µg/mL (≈ 2020 µM). Consider `COc1cc([C@H]2OC[C@H]3[C@@H]2CO[C@@H]3c2ccc(O)c(OC)c2)ccc1O` [compound 3, 4,4'-dihydroxy-3,3'-dimethoxy-7, 9’:7’, 9-diepoxylignan], for which the half-maximal inhibitory concentration (IC50) came to 1810 µg/mL (≈ 5050 µM).

In turn, `O=c1cc(-c2ccc(O)c(O)c2)oc2cc(O)cc(O)c12` [luteolin, reference compound] came in with an IC50 of 630 µg/mL (≈ 2200 µM).

For the origin of these results see paper PMC12606866, “Phenolic Compounds from Diarthron iranica: Enzymatic and in Silico Insights Into α-Amylase Inhibitory Activity” (Iranian Journal of Pharmaceutical Research : IJPR, 2025).
